Results on 12 compounds are retold here after PubChem BioAssay (NCI).

Some test systems named below: HCC-2998 colon; M14 melanoma; HT29 colon; DU-145 prostate; 786-0 renal; UACC-257 melanoma; OVCAR-4 ovarian; SK-MEL-5 melanoma; CAKI-1 renal; A498 renal.
Test in all cases: NCI-60 cell line screen, 48 h

Molecules are shown by their SMILES.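 Following 48 hours of exposure in 96-well plates, responses at five concentrations were used to interpolate endpoints linearly. At the GI50, growth is halved. The concentration for full growth arrest is given as TGI.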 A value given as a limit tells only on which side of the number the result lay.

Take `COc1ccc(/C(=C/c2ccc3ccccc3c2)c2nn[nH]n2)cc1OC`: the GI50 with HCC-2998 colon was 5.2 µM; in the test on M14 melanoma it was 1900 nM; with HT29 colon, 2690 nM; in the test on DU-145 prostate it was 3530 nM; in the test with 786-0 renal, 5.72 µM; with UACC-257 melanoma, 56.6 µM. The GI50 with OVCAR-4 ovarian is 7780 nM; with SK-MEL-5 melanoma, 4.68 µM; with CAKI-1 renal it was 2240 nM. In addition, the TGI with HCC-2998 colon is 82.9 µM; with M14 melanoma, greater than 100 µM; with HT29 colon, 21.6 µM; in the test with DU-145 prostate, 49.2 µM; in the test with 786-0 renal, greater than 100 µM; with UACC-257 melanoma it was greater than 100 µM. In addition, the TGI with OVCAR-4 ovarian is greater than 100 µM; in the test on SK-MEL-5 melanoma it was 23.8 µM; in the test on CAKI-1 renal, greater than 100 µM.

On to `N.N.N.N.N.N#Cc1nn[n-]n1.[Cl-].[Co+3]`, for which the GI50 was greater than 100 µM in the test on HCC-2998 colon; greater than 100000 nM in the test with M14 melanoma; greater than 100000 nM with HT29 colon; greater than 100 µM with 786-0 renal; greater than 100 µM in the test with UACC-257 melanoma; greater than 100000 nM with OVCAR-4 ovarian. Further, the GI50 with SK-MEL-5 melanoma is greater than 100 µM; in the test with CAKI-1 renal, greater than 100000 nM. Besides, the TGI with HCC-2998 colon, in the test with M14 melanoma, with HT29 colon, in the test on 786-0 renal, in the test with UACC-257 melanoma and in the test on OVCAR-4 ovarian was greater than 100 µM each time. The TGI with SK-MEL-5 melanoma and in the test with CAKI-1 renal was greater than 100 µM each time.

Regarding `Cn1cnc([N+](=O)[O-])c1Sc1nc2ccccc2o1`, the TGI in the test on HCC-2998 colon amounted to 24.9 µM; in the test with M14 melanoma, 24.4 µM; in the test on A498 renal, 45.2 µM; with HT29 colon, 12.9 µM; in the test on 786-0 renal, 29.3 µM; with UACC-257 melanoma, 19.8 µM. The results for the TGI with OVCAR-4 ovarian, with SK-MEL-5 melanoma and with CAKI-1 renal were 15 µM, 26.5 µM and 6.19 µM, respectively.

Consider `O=c1c2ccccc2nc2n1CCc1c-2[nH]c2cc3c(cc12)OCO3`, for which the TGI was greater than 25 µM in the test with HCC-2998 colon; greater than 25 µM with M14 melanoma; 7.69 µM in the test with 786-0 renal; greater than 25 µM in the test with UACC-257 melanoma; 6.35 µM in the test with OVCAR-4 ovarian; greater than 25 µM in the test on SK-MEL-5 melanoma. In addition, the GI50 is 1.08 µM in the test with 786-0 renal and 1500 nM in the test on OVCAR-4 ovarian.

On to `Cc1cc2c(C(=O)NCC#N)cccc2n1-c1nc2c(c(NCc3ccccc3)n1)CCCC2`, for which the GI50 was 0.178 µM with HCC-2998 colon; 220 nM in the test on M14 melanoma; 303 nM in the test with HT29 colon; 384 nM in the test on DU-145 prostate; 0.382 µM in the test on 786-0 renal; 322 nM with OVCAR-4 ovarian. In addition, the GI50 in the test on SK-MEL-5 melanoma is 0.118 µM; with CAKI-1 renal it was 666 nM. In addition, the TGI with HCC-2998 colon stood at 0.357 µM; with M14 melanoma, 0.532 µM; in the test on HT29 colon, 1.05 µM; in the test with DU-145 prostate, 2.48 µM; with 786-0 renal, 1.39 µM; with OVCAR-4 ovarian, 1.76 µM. Further, the values for the TGI in the test with SK-MEL-5 melanoma and in the test with CAKI-1 renal were 0.245 µM and greater than 100 µM, respectively.

For the compound `O=C(Nc1ccccc1)n1cc(-c2ccccn2)c(N2CCOCC2)n1`, the TGI in the test on HCC-2998 colon is greater than 100 µM; with M14 melanoma, greater than 100 µM; in the test on A498 renal, 51.1 µM; in the test with HT29 colon it was 19.1 µM; in the test with 786-0 renal, 74.7 µM; with UACC-257 melanoma it was greater than 100 µM. In addition, the values for the TGI with OVCAR-4 ovarian, with SK-MEL-5 melanoma and in the test on CAKI-1 renal were greater than 100 µM, greater than 100 µM and 49.7 µM, respectively.

In the case of `C=C1C(=O)O[C@@H]2C[C@@H]1CC[C@]1(C)O[C@H]1CC/C(C)=C/CC[C@@]2(C)O`, the GI50 in the test on HCC-2998 colon was 10.6 µM; in the test with M14 melanoma, 16800 nM; with A498 renal, 23.3 µM; in the test with HT29 colon it was 15400 nM; in the test on 786-0 renal it was 17 µM; in the test with UACC-257 melanoma, 11.3 µM. For the same compound, the GI50 with SK-MEL-5 melanoma was 24.3 µM; in the test with CAKI-1 renal, 18700 nM. Also, the TGI with HCC-2998 colon amounted to 23.6 µM; in the test with M14 melanoma it was 35.3 µM; with A498 renal it was 74.5 µM; with HT29 colon it was 31.7 µM; in the test with 786-0 renal, 31.2 µM; in the test with UACC-257 melanoma it was 31.8 µM. The TGI in the test on SK-MEL-5 melanoma amounted to 52.7 µM; with CAKI-1 renal it was 37 µM.

`Cc1ccccc1C=NC12CC3CC(CC(C3)C1)C2`: the TGI with HCC-2998 colon, in the test with M14 melanoma, with A498 renal, with HT29 colon, with 786-0 renal and in the test on UACC-257 melanoma was greater than 100 µM each time. In addition, the TGI in the test on OVCAR-4 ovarian, in the test with SK-MEL-5 melanoma and with CAKI-1 renal was greater than 100 µM each time.

For the compound `N#CCCN(C1=NN(C(=O)CC(=O)Nc2ccc(Cl)cc2)C(c2ccccc2)C1)c1ccc(Cl)cc1` (stereo not given), the TGI in the test with HCC-2998 colon, in the test with M14 melanoma, with A498 renal, in the test with HT29 colon, with 786-0 renal and with UACC-257 melanoma was greater than 100 µM throughout. Moreover, the TGI in the test with OVCAR-4 ovarian, with SK-MEL-5 melanoma and with CAKI-1 renal was greater than 100 µM throughout.

As for `O=C(CCC(=O)Nc1ccc(Cl)cc1)CC(=O)c1ccc2ccccc2c1`, the TGI in the test with HCC-2998 colon, with M14 melanoma, with A498 renal, with HT29 colon, with 786-0 renal and in the test on UACC-257 melanoma was greater than 100 µM in each case. The TGI in the test on OVCAR-4 ovarian, in the test on SK-MEL-5 melanoma and with CAKI-1 renal was greater than 100 µM in each case.

As for `Cc1cc2nc3c(=O)[nH]c(=O)nc-3n(CC(O)C(O)C(O)CO)c2cc1N` (stereo not given), the TGI with HCC-2998 colon, with M14 melanoma, in the test on A498 renal, with HT29 colon, in the test on 786-0 renal and with OVCAR-4 ovarian was greater than 100 µM each time. In addition, the TGI with SK-MEL-5 melanoma is greater than 100 µM.

Regarding `Cc1ccc2nc(Sc3c([N+](=O)[O-])ncn3C)[nH]c2c1`, the TGI with HCC-2998 colon was 30.6 µM; in the test on M14 melanoma, 92.5 µM; in the test with A498 renal, 83.2 µM; in the test on HT29 colon, greater than 100 µM; with 786-0 renal it was greater than 100 µM; with UACC-257 melanoma, 38.5 µM. Also, the TGI stood at 79.2 µM in the test with OVCAR-4 ovarian, 33.1 µM in the test on SK-MEL-5 melanoma and 27.5 µM with CAKI-1 renal.
